Laboratory results as given in patent US9694016B2 (Novartis AG, priority 2013, dated 2017).
pIC50: −log10 of the molar value. Read-outs that look alike come from different tables or passages of the source.

Molecular target: b-Raf (V600E) (Homo sapiens (Human), UniProt P15056, V600E)
Details: read-out: b-Raf IC-50, AlphaScreen
[1] = 60 min pre-incubation, 3 hours reaction
[2] = 60 min pre-incubation, reaction 3 hours at room temperature

Chain of b-Raf (V600E) (P15056 whole entry V600E): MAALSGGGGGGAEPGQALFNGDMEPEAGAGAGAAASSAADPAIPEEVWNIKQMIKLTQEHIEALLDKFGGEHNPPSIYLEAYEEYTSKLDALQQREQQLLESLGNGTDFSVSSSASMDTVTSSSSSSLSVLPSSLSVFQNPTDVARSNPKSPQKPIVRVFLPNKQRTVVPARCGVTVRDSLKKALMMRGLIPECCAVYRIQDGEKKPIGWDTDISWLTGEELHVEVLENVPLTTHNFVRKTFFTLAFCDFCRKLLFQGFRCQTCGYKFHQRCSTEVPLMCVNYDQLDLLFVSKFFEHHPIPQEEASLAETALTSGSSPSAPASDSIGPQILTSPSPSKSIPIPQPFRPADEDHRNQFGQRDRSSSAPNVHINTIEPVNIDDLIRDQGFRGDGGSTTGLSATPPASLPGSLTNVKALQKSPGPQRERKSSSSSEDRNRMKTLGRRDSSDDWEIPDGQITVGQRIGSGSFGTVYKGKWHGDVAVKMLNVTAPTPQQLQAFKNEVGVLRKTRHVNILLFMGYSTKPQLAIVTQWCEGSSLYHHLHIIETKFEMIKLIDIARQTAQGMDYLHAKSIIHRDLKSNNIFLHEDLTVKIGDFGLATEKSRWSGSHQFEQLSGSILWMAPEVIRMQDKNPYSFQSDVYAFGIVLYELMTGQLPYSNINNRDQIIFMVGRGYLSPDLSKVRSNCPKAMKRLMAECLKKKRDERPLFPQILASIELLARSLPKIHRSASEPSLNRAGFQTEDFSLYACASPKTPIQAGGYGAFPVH

SMILES | pIC50 (Table 2, 3 hours reaction) | pIC50 [1] | other results
CCN1CCN(c2cc(C(=O)Nc3ccc(C)c(-c4cc(N5CCOCC5)nc(N5CCOCC5)n4)c3)cc(C(F)(F)F)c2)CC1 [Example 21, N-(3-(2,6-dimorpholinopyrimidin-4-yl)-4-methylphenyl)-3-(4-ethylpiperazin-1-yl)-5-(trifluoromethyl)benzamide] | 8.40 | – | –
Cc1ccc(NC(=O)c2ccnc(C(C)(C)F)c2)cc1-c1cnc(OC(C)C)c(N2CCOCC2)c1 [Example 946, 2-(2-fluoropropan-2-yl)-N-(3-(6-isopropoxy-5-morpholinopyridin-3-yl)-4-methylphenyl)isonicotinamide] | – | – | pIC50 [2]: 8.63
Cc1ncc(NC(=O)c2ccnc(C(C)(C)C#N)c2)cc1-c1cc(N2CCOCC2)nc(NC(C)(C)CO)n1 [Example 750, 2-(2-cyanopropan-2-yl)-N-(5-(2-((1-hydroxy-2-methylpropan-2-yl)amino)-6-morpholinopyrimidin-4-yl)-6-methylpyridin-3-yl)isonicotinamide] | – | 7.65 | –
Cc1ccc(NC(=O)c2cnnc(C3CC3)c2)cc1-c1cc(N2CCOCC2)nc(N2CC(C)(O)C2)c1 [Example 1076, 6-cyclopropyl-N-(3-(2-(3-hydroxy-3-methylazetidin-1-yl)-6-morpholinopyridin-4-yl)-4-methylphenyl)pyridazine-4-carboxamide] | – | – | pIC50 [2]: 8.64
Cc1ccc(NC(=O)c2ccnc(C(C)(C)F)c2)cc1-c1cc(N2C3CCC2COC3)c(=O)n(C)n1 [Example 668, N-(3-(5-(3-oxa-8-azabicyclo[3.2.1]octan-8-yl)-1-methyl-6-oxo-1,6-dihydropyridazin-3-yl)-4-methylphenyl)-2-(2-fluoropropan-2-yl)isonicotinamide] | – | 8.39 | –
CCn1c(N2CCOCC2)cc(-c2cc(NC(=O)c3ccnc(C(C)(F)F)c3)ccc2C)cc1=O [Example 519, 2-(1,1-difluoroethyl)-N-(3-(1-ethyl-6-morpholino-2-oxo-1,2-dihydropyridin-4-yl)-4-methylphenyl)isonicotinamide] | – | 9.22 | –
Cc1ncc(NC(=O)c2ccnc(C(C)(F)F)c2)cc1-c1cnc(OC2CCOCC2)c(N2CCOCC2)c1 [Example 938, 2-(1,1-difluoroethyl)-N-(2-methyl-5′-morpholino-6′-((tetrahydro-2H-pyran-4-yl)oxy)-[3,3′-bipyridin]-5-yl)isonicotinamide] | – | – | pIC50 [2]: 8.63
Cc1ccc(NC(=O)c2ccnc(C(F)(F)F)c2)cc1-c1cc(N2CCOCC2)nc(N2CC(O)C2)c1 [Example 1060, N-(3-(2-(3-hydroxyazetidin-1-yl)-6-morpholinopyridin-4-yl)-4-methylphenyl)-2-(trifluoromethyl)isonicotinamide] | – | – | pIC50 [2]: 8.41
Cc1ccc(NC(=O)c2cnnc(C(F)(F)F)c2)cc1-c1cc(N2CCOCC2)c2nccn2c1 [Example 852] | – | – | pIC50 [2]: 9.15
Cc1ncc(NC(=O)c2ccnc(C(C)(C)C#N)c2)cc1-c1cc(N2CCOCC2)c(=O)n(C)n1 [Example 645, 2-(2-cyanopropan-2-yl)-N-(6-methyl-5-(1-methyl-5-morpholino-6-oxo-1,6-dihydropyridazin-3-yl)pyridin-3-yl)isonicotinamide] | – | 7.27 | –
Cc1ncc(NC(=O)c2cc(C(C)(C)F)ccn2)cc1-c1cnc(OC(C)C)c(N2CCOCC2)c1 [Example 957, 4-(2-fluoropropan-2-yl)-N-(6′-isopropoxy-2-methyl-5′-morpholino-[3,3′-bipyridin]-5-yl)picolinamide] | – | – | pIC50 [2]: 8.21
Cc1ccc(NC(=O)c2cnnc(C3CC3)c2)cc1-c1cc(N2CCOCC2)c(=O)n(C)c1 [Example 362, 6-cyclopropyl-N-(4-methyl-3-(1-methyl-5-morpholino-6-oxo-1,6-dihydropyridin-3-yl)phenyl)pyridazine-4-carboxamide] | 8.54 | – | –
Cc1ccc(NC(=O)c2ccnc(C3(C#N)CC3)c2)cc1-c1cc(N2CCOCC2)c(=O)n(C)c1 [Example 357, 2-(1-cyanocyclopropyl)-N-(4-methyl-3-(1-methyl-5-morpholino-6-oxo-1,6-dihydropyridin-3-yl)phenyl)isonicotinamide] | 8.47 | – | –
CCn1cc(C(=O)Nc2cnc(C)c(-c3cc(N4CCOCC4)n(C)c(=O)c3)c2)cc(C(F)(F)F)c1=O [Example 502, N-(1′,2-dimethyl-6′-morpholino-2′-oxo-1′,2′-dihydro-[3,4′-bipyridin]-5-yl)-1-ethyl-6-oxo-5-(trifluoromethyl)-1,6-dihydropyridine-3-carboxamide] | – | 7.70 | –
Cc1ncc(NC(=O)c2ccnc(C(C)(C)F)c2)cc1-c1cc(C2COCCO2)nc(N2CCOCC2)c1 (stereo not drawn) [Example 1167, N-(2′-(1,4-dioxan-2-yl)-2-methyl-6′-morpholino-[3,4′-bipyridin]-5-yl)-2-(2-fluoropropan-2-yl)isonicotinamide] | – | – | pIC50 [2]: 8.12
Cc1ccc(NC(=O)c2cnnc(C3CC3)c2)cc1-c1cc(N2CCOCC2)n(C)c(=O)c1 [Example 496, 6-cyclopropyl-N-(4-methyl-3-(1-methyl-6-morpholino-2-oxo-1,2-dihydropyridin-4-yl)phenyl)pyridazine-4-carboxamide] | – | 9.05 | –
Cc1ncc(NC(=O)c2ccnc(C(C)C)c2)cc1-c1cnc(N(C)C)c(N2CCOCC2)c1 [Example 308, N-(6′-(dimethylamino)-2-methyl-5′-morpholino-[3,3′-bipyridin]-5-yl)-2-isopropylisonicotinamide] | 9.10 | – | –
Cc1ncc(NC(=O)c2cccc(C(F)(F)F)c2)cc1-c1cc(N2CCOCC2)c(OCC(F)F)nn1 [Example 918, N-(5-(6-(2,2-difluoroethoxy)-5-morpholinopyridazin-3-yl)-6-methylpyridin-3-yl)-3-(trifluoromethyl)benzamide] | – | – | pIC50 [2]: 8.93
Cc1ncc(NC(=O)c2cc(C(C)(C)F)ccn2)cc1-c1cnc(OCCO)c(N2CCOCC2)c1 [Example 971, 4-(2-fluoropropan-2-yl)-N-(6′-(2-hydroxyethoxy)-2-methyl-5-morpholino-[3,3′-bipyridin]-5-yl)picolinamide] | – | – | pIC50 [2]: 8.08
Cc1ccc(NC(=O)c2ccnc(C3COC3)c2)cc1-c1cc(N2CCOCC2)c(=O)n(C)c1 [Example 356, N-(4-methyl-3-(1-methyl-5-morpholino-6-oxo-1,6-dihydropyridin-3-yl)phenyl)-2-(oxetan-3-yl)isonicotinamide] | 8.41 | – | –

Second part, led by results:

pIC50 (Table 2, 3 hours reaction) | pIC50 [1] | SMILES | other results
– | 8.68 | Cc1ncc(NC(=O)c2cccc(C(F)(F)F)c2)cc1-c1cc(N2CCOCC2)nc(NC[C@H](C)O)n1 [Example 740, (S)—N-(5-(2-((2-hydroxypropyl)amino)-6-morpholinopyrimidin-4-yl)-6-methylpyridin-3-yl)-3-(trifluoromethyl)benzamide] | –
8.42 | – | Cc1ncc(NC(=O)c2cnnc(C(F)(F)F)c2)cc1-c1cnc(Cl)c(N2CCOCC2)c1 [Example 292, N-(6′-chloro-2-methyl-5′-morpholino-[3,3′-bipyridin]-5-yl)-6-(trifluoromethyl)pyridazine-4-carboxamide] | –
– | 9.22 | Cc1ccc(NC(=O)c2ccnc(C(C)(F)F)c2)cc1-c1cc(N2CCOCC2)c(OC2CCOCC2)nn1 [Example 579, 2-(1,1-difluoroethyl)-N-(4-methyl-3-(5-morpholino-6-((tetrahydro-2H-pyran-4-yl)oxy)pyridazin-3-yl)phenyl)isonicotinamide] | –
– | 9.00 | CCOc1nnc(-c2cc(NC(=O)c3ccnc(C(F)(F)CC)c3)ccc2C)cc1N1CCOCC1 [Example 560, 2-(1,1-difluoropropyl)-N-(3-(6-ethoxy-5-morpholinopyridazin-3-yl)-4-methylphenyl)isonicotinamide] | –
– | 8.64 | COc1nnc(-c2cc(NC(=O)c3cccc(C(F)F)c3)cnc2C)cc1N1CCOCC1 [Example 604, 3-(difluoromethyl)-N-(5-(6-methoxy-5-morpholinopyridazin-3-yl)-6-methylpyridin-3-yl)benzamide] | –
– | 8.35 | Cc1ccc(NC(=O)c2cc(CN)cc(C(F)(F)F)c2)cc1-c1cc(N2CCOCC2)c(=O)n(C)c1 [Example 470, 3-(aminomethyl)-N-(4-methyl-3-(1-methyl-5-morpholino-6-oxo-1,6-dihydropyridin-3-yl)phenyl)-5-(trifluoromethyl)benzamide] | –
– | 8.74 | CCOc1nnc(-c2cc(NC(=O)c3ccnc(C4CC4)c3)cnc2C)cc1N1CCOCC1 [Example 612, 2-cyclopropyl-N-(5-(6-ethoxy-5-morpholinopyridazin-3-yl)-6-methylpyridin-3-yl)isonicotinamide] | –
9.15 | – | CCOc1ncc(-c2cc(NC(=O)c3cccc(S(C)(=O)=O)c3)ccc2C)cc1N1CCOCC1 [Example 229, N-(3-(6-ethoxy-5-morpholinopyridin-3-yl)-4-methylphenyl)-3-(methylsulfonyl)benzamide] | –
– | 8.89 | Cc1ncc(NC(=O)c2cccc(C(F)(F)F)c2)cc1-c1cc(N2CCOCC2)n2nccc2n1 [Example 793] | –
– | 9.00 | COc1nnc(-c2cc(NC(=O)c3ccnc(C(F)(F)F)c3)ccc2C)cc1N1CCOCC1 [Example 547, N-(3-(6-methoxy-5-morpholinopyridazin-3-yl)-4-methylphenyl)-2-(trifluoromethyl)isonicotinamide] | –
7.19 | – | Cc1ncc(NC(=O)c2cccc(C(C)(C)C#N)c2)cc1-c1cc(N2CCOCC2)c(=O)n(C)c1 [Example 389, 3-(2-cyanopropan-2-yl)-N-(1′,2-dimethyl-5′-morpholino-6′-oxo-1′,6′-dihydro-[3,3′-bipyridin]-5-yl)benzamide] | –
5.62 | – | CCCN(C(=O)c1cccc(C(F)(F)F)c1)c1cnc(C)c(-c2cnc(OC3CCOCC3)c(N3CCOCC3)c2)c1 [Example 330, N-(2-methyl-5′-morpholino-6′-((tetrahydro-2H-pyran-4-yl)oxy)-[3,3′-bipyridin]-5-yl)-N-propyl-3-(trifluoromethyl)benzamide] | –
8.51 | – | CCOc1ncc(-c2cc(NC(=O)c3cnnc(C(F)(F)F)c3)cnc2C)cc1N1CCOCC1 [Example 259, N-(6′-ethoxy-2-methyl-5′-morpholino-[3,3′-bipyridin]-5-yl)-6-(trifluoromethyl)pyridazine-4-carboxamide] | –
